Measurements reported in patent US20240166612A1, “ARYLTHIOETHER ACETAMIDE AND RELATED COMPOUNDS AND THEIR USE IN TREATING MEDICAL CONDITIONS” (X-Biotix Therapeutics, Inc., priority 2021, published 2024).
≈ marks a conversion by molar mass, not a printed value.

Key:
[1] = target: T1, recombinant LpxA enzyme (P. aeruginosa) (Pseudomonas aeruginosa, UniProt Q9X6P4); assay: LpxA in vitro substrate acylation assay with RapidFire MS analysis (P. aeruginosa); type: biochemical; conditions: P. aeruginosa enzyme 0.5 nM, PaACP-C10, 30 min
T1 sequence (Q9X6P4 1-258): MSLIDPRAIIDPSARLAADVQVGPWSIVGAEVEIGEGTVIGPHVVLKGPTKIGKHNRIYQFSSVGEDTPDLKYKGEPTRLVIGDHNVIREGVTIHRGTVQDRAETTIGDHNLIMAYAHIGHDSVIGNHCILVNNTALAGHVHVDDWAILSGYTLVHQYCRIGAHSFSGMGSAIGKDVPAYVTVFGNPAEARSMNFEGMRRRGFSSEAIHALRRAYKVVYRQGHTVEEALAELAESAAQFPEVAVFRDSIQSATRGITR

[2] = tested on: Wild-type P. aeruginosa PAO1; assay: Broth microdilution MIC, wild-type P. aeruginosa PAO1; type: cell-based; conditions: Pseudomonas aeruginosa; wild-type P. aeruginosa PAO1, 37° C., 18 h; read-out: PAO1 WT MIC
[3] = target: recombinant LpxA enzyme (E. coli) (Escherichia coli, UniProt P0A722); assay: LpxA in vitro substrate acylation assay with RapidFire MS analysis (E. coli); type: biochemical
Experimental: Exemplary compounds from the above Examples were tested for ability to inhibit LpxA activity using an in vitro substrate acylation assay with RapidFire™ MS analysis. Assay procedures and results are described below.
Reactions were carried out in a final volume of 30 μL with 25 mM HEPES (pH 7.3), 150 mM NaCl, 2 mM DTT, 0.01% BSA, 5 μM UDP-GlcNac, recombinant LpxA enzyme (0.5 nM P. aeruginosa or 1.0 nM E. coli, both produced at Evotec), 0.5 μM acyl-transfer reagent (decanoyl P. aeruginosa acyl-carrier protein [PaACP-C10] or myristoyl E. coli acyl-carrier protein [EcACP-C1-4], both produced at Evotec), and 1% DMSO containing test compound. After 30 min incubation at room temperature, reactions were stopped by addition of 30 μL of 10% TCA in water.
Samples were centrifuged (4350 rpm, 4° C., 5 min), and then subjected to RapidFire™ MS analysis on an Agilent RapidFire 300 coupled to an Agilent 6460 triple-quadrupole mass spectrometer. Analytes were retained on a C4 (type A) cartridge using the following solvents and flow rates: • Pump 1—H2O with 5 mM NH4OAc at 2.0 mL/min, • Pump 2—MeOH/H2O (90/10) at 1.5 mL/min, • Pump 3—MeOH/H2O (90/10) at 0.5 mL/min, and • Pump 4—ACN (organic)/H2O (aqueous). Substrate and product of the reaction were detected in negative mode ESI-MS/MS by MRM (multiple reaction monitoring) of transitions 606.0/385.0 (UDP-GlcNAc substrate) and 776.2/385.0 (UDP-3-O—(R-3-hydroxydecanoyl)-GlcNAc product, for P. aeruginosa LpxA assay) or 832.2/385.0 (UDP-3-O—(R-3-hydroxymyristoyl)-GlcNAc product, for E. coli LpxA assay).
For IC50 determinations, peak areas of the substrate and product were compared to compute the proportion of product formed by the LpxA enzyme at each compound concentration.

P. aeruginosa PAO397 = assay: Broth microdilution MIC, P. aeruginosa PAO397; type: cell-based; conditions: Pseudomonas aeruginosa, PAO397, 18 h, read-out: PAO397 KO MIC
[4] = tested on: P. aeruginosa PAO1 ΔmexABoprM; assay: Broth microdilution MIC, P. aeruginosa PAO1 ΔmexABoprM; type: cell-based; conditions: Pseudomonas aeruginosa, PAO1, 18 h, read-out: PAO1 KO MIC
Experimental: Exemplary compounds from the above Examples were tested to determine their minimum inhibitory concentration (MIC) for exemplary strains of Escherichia and Pseudomonas bacteria using broth microdilution methods. Assay procedures and results are described below.
Broth microdilution assays were conducted according to Clinical and Laboratory Standards Institute guidelines (CLSI, M07-A^11: Clinical and Laboratory Standards Institute. Methods for Dilution Antimicrobial Susceptibility Tests for Bacteria that Grow Aerobically; Approved Standard-11th Edition. Wayne, PA: CLSI, 2018). Briefly, bacterial suspensions were adjusted to a density equivalent to a 0.5 McFarland standard and diluted in sterile, cation-adjusted Mueller-Hinton broth (Beckton Dickinson) to yield a final inoculum between 2×10^5 and 8×10^5 colony-forming units (CFU)/mL. An inoculum volume of 98 μL was added to wells containing 2 μL of 2-fold serial dilutions of drug (prepared in DMSO). All inoculated microdilution trays were incubated in ambient air at 37° C. for 18 h. […] Performance of the assay was monitored by the use of laboratory quality-control strains (S. aureus ATCC 29213 and P. aeruginosa ATCC 27853) and levofloxacin, a compound with a defined MIC spectrum, in accordance with CLSI guidelines (CLSI, M100Ed29: Clinical and Laboratory Standards Institute. Performance Standards for Antimicrobial Susceptibility Testing, 29th Edition. Wayne, PA: CLSI, 2018).
Multiple enterobacteriaceae strains were tested, including both wild-type strains and multi-drug resistance pump deficient mutants. Specific strains tested included the following: • Wild-type P. aeruginosa PAO1, • P. aeruginosa PAO1 ΔmexABoprM—Disabled multi-drug efflux system Δ(MexAB-OprM), • P. aeruginosa PAO397—PAO1Δ(mexAB-oprM) Δ(mexCD-oprJ) Δ(mexEF-oprN) Δ(mexJK) Δ(mexXY) ΔopmH, • P. aeruginosa LESB58—Clinical isolate; colistin-resistant, isolated in the United Kingdom in 1988 from a patient with cystic fibrosis • E. coli JW0452-3 (BW25113 JacrA::kan)—Disabled multi-drug efflux system (AcrAB-TolC).
Experimental results are provided in Table 11, which provides MIC values for wild-type P. aeruginosa PAO1 (“PAO1 WT MIC”), P. aeruginosa PAO ΔmexABoprM (“PAO1 KO MIC”), P. aeruginosa PAO397 (“PAO397 KO MIC”), P. aeruginosa LESB58 (“LESB58”), and E. coli JW0452-3 (BW25113 JacrA::kan) (“E. coli KO MIC”).

P. aeruginosa LESB58 = assay: Broth microdilution MIC, P. aeruginosa LESB58; type: cell-based; conditions: Pseudomonas aeruginosa; P. aeruginosa LESB58 clinical isolate, colistin-resistant, 37° C., 18 h

recombinant LpxA enzyme (E. coli), sequence (P0A722 whole entry): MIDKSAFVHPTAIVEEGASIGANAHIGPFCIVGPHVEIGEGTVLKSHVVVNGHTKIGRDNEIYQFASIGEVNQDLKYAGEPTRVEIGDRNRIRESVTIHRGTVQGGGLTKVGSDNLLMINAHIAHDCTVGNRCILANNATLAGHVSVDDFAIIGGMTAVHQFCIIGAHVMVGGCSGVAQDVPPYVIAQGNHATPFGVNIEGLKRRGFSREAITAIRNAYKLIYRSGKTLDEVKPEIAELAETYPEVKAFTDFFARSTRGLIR

SMILES	IC50 [1] [nM]	MIC [2] [µg/mL]	IC50 [3] [nM]	MIC (P. aeruginosa PAO397) [µg/mL]	MIC [4] [µg/mL]	MIC (P. aeruginosa LESB58) [µg/mL]
N#Cc1ccc(CN(CC(=O)N2CCNCC2)C(=O)CSc2ccccc2Cl)cc1 [Compound No. 3]	> 1000	> 64	> 20000	16 to 64 (≈ 36.1 to 144 µM)	–	–
CCc1ccccc1SCC(=O)N(Cc1ccc(C#N)nc1)Cc1nnc(N)o1 [Compound No. 7, N-[(5-Amino-1,3,4-oxadiazol-2-yl)methyl]-N-[(6-cyano-3-pyridyl)methyl]-2-(2-ethylphenyl)sulfanyl-acetamide]	< 20	> 64	–	< 1	1 to 16 (≈ 2.45 to 39.2 µM)	16 to 64 (≈ 39.2 to 157 µM)
N#Cc1ccc(CN(C(=O)CSc2ccccc2Cl)[C@@H](CO)c2nnc(N)o2)cn1 [Compound No. 8, 2-(2-Chlorophenyl)sulfanyl-N-[(6-cyano-3-pyridyl)methyl]-N-[(1S)-1-(5-amino-1,3,4-oxadiazol-2-yl)-2-hydroxy-ethyl]acetamide]	< 20	> 64	> 20000	< 1	1 to 16 (≈ 2.25 to 36 µM)	–
Nc1nnc(CN(Cc2ccc(OC3CCOCC3)cc2)C(=O)CSc2ccccc2Cl)o1 [Compound No. 11]	100 to 1000	–	> 20000	< 1	1 to 16 (≈ 2.05 to 32.7 µM)	–
N#Cc1ccc(CN(Cc2nnc(N)o2)C(=O)CSc2cc(F)cc(F)c2Cl)cn1 [Compound No. 21, N-[(5-Amino-1,3,4-oxadiazol-2-yl)methyl]-2-(2-chloro-3,5-difluoro-phenyl)sulfanyl-N-[(6-cyano-3-pyridyl)methyl]acetamide]	< 20	16 to 64 (≈ 35.5 to 142 µM)	–	< 1	1 to 16 (≈ 2.22 to 35.5 µM)	16 to 64 (≈ 35.5 to 142 µM)
N#Cc1ccc(CN(Cc2nnc(N)o2)C(=O)CSc2ccccc2Cl)cc1 [compound 9]	–	16 to 64 (≈ 38.7 to 155 µM)	> 20000	< 1	1 to 16 (≈ 2.42 to 38.7 µM)	–
N#Cc1ccc(CN(Cc2nnc(N)o2)C(=O)CCc2ccccc2Cl)cn1 [compound 16]	100 to 1000	> 64	> 20000	1 to 16 (≈ 2.52 to 40.3 µM)	16 to 64 (≈ 40.3 to 161 µM)	–
CCc1ccccc1OCC(=O)N(Cc1ccc(C#N)nc1)Cc1nnc(N)o1 [compound 19]	20 to 100	> 64	–	< 1	1 to 16 (≈ 2.55 to 40.8 µM)	16 to 64 (≈ 40.8 to 163 µM)
Nc1nnc(CN(Cc2ccc(S(N)(=O)=O)cc2F)C(=O)CSc2cc(F)ccc2Cl)o1 [compound 24]	20 to 100	> 64	–	< 1	1 to 16 (≈ 1.98 to 31.7 µM)	16 to 64 (≈ 31.7 to 127 µM)
Nc1nnc(CN(Cc2ccc(S(N)(=O)=O)cc2F)C(=O)CSc2cc(F)cc(F)c2Cl)o1 [compound 27]	–	> 64	> 20000	< 1	< 1	1 to 16 (≈ 1.92 to 30.7 µM)
C[C@@H](Oc1ccccc1Cl)C(=O)N(Cc1ccc(C#N)cc1)Cc1nnc(N)o1 [compound 36]	100 to 1000	> 64	–	< 1	16 to 64 (≈ 38.8 to 155 µM)	> 64
CC(=O)Nc1ccc(CN(Cc2nnc(N)o2)C(=O)CSc2ccccc2Cl)cc1 [compound 44]	100 to 1000	> 64	> 20000	16 to 64 (≈ 35.9 to 144 µM)	–	–
Cc1cc(C#N)ccc1CN(Cc1nnc(N)o1)C(=O)CSc1ccccc1Cl [compound 48]	20 to 100	> 64	–	< 1	16 to 64 (≈ 37.4 to 150 µM)	–
N#Cc1ccc(CN(Cc2nnc(N)o2)C(=O)CSc2cc(F)ccc2Cl)cc1 [compound 51]	< 20	> 64	–	< 1	1 to 16 (≈ 2.32 to 37 µM)	1 to 16 (≈ 2.32 to 37 µM)
N#Cc1ccc(CN(Cc2nnn[nH]2)C(=O)CSc2ccccc2Cl)cc1 [compound 54]	–	> 64	> 20000	16 to 64 (≈ 40.1 to 160 µM)	–	–
N#Cc1ccc(CN(Cc2nnc(N)o2)C(=O)CSc2cccc(Cl)c2Cl)c(F)c1 [compound 57]	20 to 100	> 64	–	< 1	1 to 16 (≈ 2.14 to 34.3 µM)	16 to 64 (≈ 34.3 to 137 µM)
N#Cc1ccc(CN(Cc2nnc(N)o2)C(=O)CSc2ncccc2Cl)c(F)c1 [compound 58]	20 to 100	> 64	–	< 1	1 to 16 (≈ 2.31 to 37 µM)	> 64
Nc1nnc(CN(Cc2ccc(S(N)(=O)=O)cc2)C(=O)CSc2cc(F)cc(F)c2Cl)o1 [compound 59]	< 20	> 64	> 20000	< 1	1 to 16 (≈ 1.98 to 31.7 µM)	16 to 64 (≈ 31.7 to 127 µM)
Cc1ncc(CN(Cc2ccc(C#N)cc2)C(=O)CSc2ccccc2Cl)o1 [compound 73]	100 to 1000	> 64	> 20000	1 to 16 (≈ 2.43 to 38.8 µM)	–	–
Cc1nnc(CN(Cc2ccc(C#N)cc2)C(=O)CSc2ccccc2Cl)[nH]1 [compound 74]	100 to 1000	> 64	–	1 to 16 (≈ 2.43 to 38.8 µM)	16 to 64 (≈ 38.8 to 155 µM)	–
NC(=O)c1ccc(CN(Cc2nnc(N)o2)C(=O)CSc2ccccc2Cl)cc1 [compound 76]	100 to 1000	> 64	> 20000	1 to 16 (≈ 2.32 to 37 µM)	16 to 64 (≈ 37 to 148 µM)	–
